# Experimental data reported in patent US20220133642A1, “TOPICAL FILM-FORMING SPRAY” (GRACE THERAPEUTICS INC., priority 2015, published 2022).
# Counter-ions that a name gives are not always drawn.
# Assay: Solubility study for drug saturation in spray vehicle
# Assay type: physicochemical
# Details: 16 mg of drug; after standing
# Description: Solubility studies to find out concentration at which the drug is present at saturation levels were performed as follows: The drug (bupivacaine hydrochloride 2, 4, 8, 10, 12 & 16 mg) was added to, propylene glycol, oleyl alcohol and menthol in ethanol under stirring and mixing till clear solution is formed. The film-forming polymer in the clear drug solution was added while stirring till polymer dissolves or hydrates completely.
smiles,measurement,value
CCCCN1CCCCC1C(=O)Nc1c(C)cccc1C (stereo not shown) [bupivacaine hydrochloride],appearance of drug solution,precipitated out from clear solution after standing
